Laboratory results as given in publication PMC12135066, “Design and Preclinical Evaluation of Novel uPAR-Targeting Radiopeptides Modified with an Albumin-Binding Entity” (Molecular Pharmaceutics, 2025).
Where two headings read alike, the source gives them in different places.

Columns and labels:
[1] = tested on: HEK-uPAR xenograft-bearing nude mice; conditions: mouse, in vivo
[2] = target: T1, human uPAR (Homo sapiens, UniProt Q03405); assay: uPAR-binding affinity (KD values), saturation experiments with HEK-uPAR cells; conditions: saturation binding on HEK-uPAR cells, on ice (4 °C) 1 h, 1–1600 nM radiopeptide, ± AE105 40 µM; γ-counter; nonlinear regression; average ± SD, n=3
T1 construct: host or cells: HEK cells (HEK-uPAR)
Description: To determine the uPAR-binding affinity of the radiopeptides, saturation experiments were performed using HEK-uPAR cells in 48-well plates (Supporting Information). The cells were incubated on ice for 1 h in the presence or absence of excess AE105 (final concentration of 40 μM) together with the respective radiopeptide at a concentration range of 1–1600 nM. After rinsing the cells with PBS, they were lysed with an aqueous NaOH solution (1 M, 600 μL), transferred to radioimmunoassay tubes, and measured in a γ-counter (1480 Wizard, PerkinElmer). The K D values were determined by plotting the specific binding (values of samples incubated without AE105 minus the values of samples incubated with AE105) against the molar concentration of the added peptide. A nonlinear regression analysis was performed using GraphPad Prism software (version 8.3.1). The results were expressed as average ± SD of n = 3 independently performed experiments. […]
7. Determination of uPAR-Binding Affinity (KD Values)
Purpose: The uPAR-binding affinity of the radiopeptides were determined to investigate the impact of structural changes on the receptor binding.
Methods: HEK-uPAR cells were seeded in poly-D-lysine-coated 48-well plates (0.25 × 10 6 in 0.5 mL per well) using DMEM cell culture medium with supplements. The cells were incubated at 37 °C and 5% CO2 overnight to allow adhesion and growth. After removing the supernatant, the well plates with HEK-uPAR cells were placed on ice to prevent internalization of the radiopeptides. The cells were rinsed with cold PBS (0.5 mL, pH 7.4) followed by the addition of DMEM cell culture medium without supplements (450 µL/well) in the presence or absence of AE105 ( final concentration 40 µM) as a receptor-blocking agent. The radiopeptides (5 MBq/nmol) were diluted in PBS to obtain peptide concentrations ranging from 10 ‒16000 nM. From each dilution, 50 µL were added to each well to obtain final peptide concentrations of 1 nM to 1600 nM. The cells were incubated at 4 °C for 1 h before rinsing twice with PBS (0.5 mL, pH 7.4). The cells were lysed using an aqueous NaOH solution (1 M, 600 µL) and the lysates were transferred to RIA tubes for counting the activity in a γ-counter (1480 Wizard, PerkinElmer) . The KD values were determined by plotting specific binding (total binding minus unspecific binding) against the molar concentration of the added radiopeptide using GraphPad Prism (version 8.3.1). the results were then expressed as average K D values ± SD of n = 3 independent […]
Results: The results are reported in the main article.

[3] = in vivo; conditions: female, mouse, total radioactivity
[4] = in vitro; conditions: mouse, plasma
[5] = in vitro; conditions: human, plasma
Description: The radiopeptides (50 MBq/nmol) stabilized with L-ascorbic acid were diluted in mouse and human blood plasma and incubated at 37 °C. Aliquots were taken after 1, 4, and 24 h and analyzed using reversed-phase thin-layer chromatography (TLC) (Supporting Information).
aProduct peak expressed as percentage of the sum of integrated peak areas of the entire chromatogram relative to
the value obtained immediately after labeling (set as 100%), average ± standard deviation (SD) (n=3).
Stability of the Radiopeptides in Mouse and Human Blood Plasma
Purpose: The stability of the radiopeptides was assessed in mouse and human blood plasma as an
indication for their in vivo stability.
Methods: The radiopeptides (50 MBq/nmol) stabilized with L-ascorbic acid were diluted in mouse
blood plasma (Lot: 32321, Rockland Immunochemicals Inc., U.S.A.) or in human blood plasma
(Stiftung Blutspende SRK Aargau -Solothurn, Switzerland) at a concentration of 10 MBq/200 µL and
incubated at 37 °C over a 24 h time period. Control samples were prepared by diluting the radiopeptides
in saline at the same activity concentration. Aliquots of each dilution were taken after 1 h, 4 h, and 24 h
(2 µL, ~100 kBq) and investigated employing thin layer chromatography (TLC) methods on reversed-
phase TLC plates (MERCK Analytical Chromatography, TLC Silica gel 60 RP -18 F254s) as stationary
phase and a 3/7 (v/v) mixture of acetonitrile /citrate buffer (0.1 M, pH 5.5) as mobile phase. A dilution
of [177Lu]LuCl3/HCl 0.04 M (10 MBq/200 µL) was added on each TLC plate. The developed and dried
TLC plates were exposed to a phosphor screen (Super resolution screen PSR10450013, PerkinElmer)
for 1 min. The screen was read with a Cyclone Plus phosphor imager (PerkinElmer) and the peak
quantification was performed using OptiQuant Software (version 5.0).

[6] = physchem; conditions: pH 7.4
Description: The radiopeptides diluted in phosphate-buffered saline (PBS) pH 7.4 (25 μL, ∼0.5 MBq, 0.01 nmol) were added to a mixture of PBS pH 7.4 (1475 μL) and n-octanol (1500 μL). The vials were vortexed vigorously for 1 min, followed by centrifugation (560 rcf, 6 min) for phase separation. Aliquots were taken from each phase and measured in a γ-counter (1480 Wizard, PerkinElmer). The distribution coefficients were calculated as the logarithmic value of the ratio of counts per minute (cpm) measured in the n-octanol phase relative to the cpm measured in the PBS phase.
Methods: The logD value of all radiopeptides was determined in a mixture of n-octanol and phosphate
buffered saline (PBS) pH 7.4 using phase separation followed by liquid-liquid extraction.
polystyrene radioimmunoassay (RIA) tubes were prepared for each radiopeptide with 1.5 mL n-octanol
and 1.475 mL PBS pH 7.4. The RIA tubes were rigorously vortexed and subsequently let to stand so
that the phase separation could take place. The radiopeptides (50 MBq/nmol) were diluted with PBS
pH 7.4 to obtain an activity concentration of 10 MBq/0.5 mL. A volume of 25 μL of these solutions
was added to each RIA tube (25 µL, ~0.5 MBq, 0.01 nmol) followed by vortexing for 1 min.
separation was achieved by centrifugation at 560 rcf for 6 min. The activity in the n-octanol and PBS
phase, respectively, was measured in a γ-counter (Wallac Wizard 1480, PerkinElmer).
coefficients were calculated as the logarithm of the ratio of counts per minute (cpm) measured in the n-
octanol phase relative to the cpm measured in the PBS pH 7.4 phase.
as described above three independent times for each radiopeptide.

[7] = target: T1, human uPAR; conditions: reported value; ref not printed (citation marks lost in b4); read-out: binding affinity to human uPAR (KD); cited from earlier work
Description: The expression pattern of uPAR makes it a relevant tumor-associated marker for targeting with diagnostic and therapeutic radiopharmaceuticals. Previously, a synthetic uPAR-binding nonapeptide, referred to as AE105, was identified using phage display methodologies and affinity maturation techniques. , The reported strong binding affinity to human uPAR (K D = 0.4 nM) made AE105 an interesting candidate for the development of nuclear imaging agents and radiotherapeutics. , AE105 was conjugated with various macrocyclic chelators to enable the coordination of copper-64, gallium-68, and lutetium-177 ...

[8] = CD1/nude (Crl:CD1-Foxn nu), 0.5 nmol, Blood
[9] = CD1/nude (Crl:CD1-Foxn nu), 0.5 nmol, HEK-uPAR xgft
[10] = CD1/nude, 5 MBq (0.5 nmol), Blood
[11] = CD1/nude, 5 MBq (0.5 nmol), Bone
[12] = CD1/nude, 5 MBq (0.5 nmol), Brain
[13] = CD1/nude, 5 MBq (0.5 nmol), Heart
[14] = CD1/nude, 5 MBq (0.5 nmol), Intestines
[15] = CD1/nude, 5 MBq (0.5 nmol), Kidneys
[16] = CD1/nude, 5 MBq (0.5 nmol), Liver
[17] = CD1/nude, 5 MBq (0.5 nmol), Lung
[18] = CD1/nude, 5 MBq (0.5 nmol), Muscle
[19] = CD1/nude, 5 MBq (0.5 nmol), Pancreas
[20] = CD1/nude, 5 MBq (0.5 nmol), Salivary glands
[21] = CD1/nude, 5 MBq (0.5 nmol), Spleen
[22] = CD1/nude, 5 MBq (0.5 nmol), Stomach
[23] = CD1/nude, 5 MBq (0.5 nmol), HEK-uPAR xgft

T1 sequence (Q03405 23-335): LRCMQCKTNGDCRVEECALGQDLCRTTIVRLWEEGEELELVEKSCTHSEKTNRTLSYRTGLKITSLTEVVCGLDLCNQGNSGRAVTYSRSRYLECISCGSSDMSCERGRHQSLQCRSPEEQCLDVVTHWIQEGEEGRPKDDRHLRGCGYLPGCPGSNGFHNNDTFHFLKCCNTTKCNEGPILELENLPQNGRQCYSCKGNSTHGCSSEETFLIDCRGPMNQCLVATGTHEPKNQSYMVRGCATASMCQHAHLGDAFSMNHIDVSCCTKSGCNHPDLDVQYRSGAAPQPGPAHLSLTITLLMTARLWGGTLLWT

Kd [2]	tissue uptake at 24 h [3, 8]	tissue uptake at 4 h [3, 10]	tissue uptake at 4 h [3, 11]	tissue uptake at 24 h [3, 11]	tissue uptake at 4 h [3, 12]	tissue uptake at 24 h [3, 12]	tissue uptake at 4 h [3, 13]	tissue uptake at 24 h [3, 13]	tissue uptake at 4 h [3, 14]	tissue uptake at 24 h [3, 14]	tissue uptake at 4 h [3, 15]	tissue uptake at 24 h [3, 15]	tissue uptake at 4 h [3, 16]	tissue uptake at 24 h [3, 16]	tissue uptake at 4 h [3, 17]	tissue uptake at 24 h [3, 17]	tissue uptake at 4 h [3, 18]	tissue uptake at 24 h [3, 18]	tissue uptake at 4 h [3, 19]	Molecule	also measured
32 ± 12 nM	6 ± 0.5 %ID/g	16 ± 1 %ID/g	1.8 ± 0.2 %ID/g	1.2 ± 0.1 %ID/g	0.34 ± 0.03 %ID/g	0.13 ± 0.02 %ID/g	4.8 ± 0.2 %ID/g	2.5 ± 0.3 %ID/g	1.8 ± 0.2 %ID/g	0.84 ± 0.13 %ID/g	5.5 ± 0.2 %ID/g	3.6 ± 0.2 %ID/g	2.8 ± 0.3 %ID/g	1.6 ± 0.2 %ID/g	7.2 ± 0.3 %ID/g	4 ± 0.2 %ID/g	1.4 ± 0.1 %ID/g	0.9 ± 0.06 %ID/g	1.8 ± 0.1 %ID/g	CC(C)C[C@H](NC(=O)[C@H](Cc1ccc(O)cc1)NC(=O)[C@@H](CCCNC(=N)N)NC(=O)[C@@H](CO)NC(=O)[C@H](Cc1ccccc1)NC(=O)[C@H](CC1CCCCC1)NC(=O)[C@H](CC(=O)O)NC(=O)[C@H](CCCCNC(=O)CCOCCOCCOCCOCCNC(=O)CCCc1ccc(I)cc1)NC(=O)CN1CCN(CC(=O)O)CCN(CC(=O)O)CCN(CC(=O)O)CC1)C(=O)N[C@@H](Cc1c[nH]c2ccccc12)C(=O)N[C@@H](CO)C(N)=O [[^177Lu]Lu-uPAR-02, metal not drawn]	fold higher activity retention in the HEK-uPAR xenograft than [177Lu]Lu-DOTA-AE105 [1]: over 10 fold; fold higher xenograft-to-kidney ratio than [177Lu]Lu-DOTA-AE105 [1]: > 3 fold; tissue uptake at 4 h [3, 9]: 11 ± 2 %ID/g; tissue uptake at 24 h [3, 9]: 10 ± 3 %ID/g; tissue uptake at 24 h [3, 19]: 0.92 ± 0.06 %ID/g; tissue uptake at 4 h [3, 20]: 3.2 ± 0.4 %ID/g; tissue uptake at 24 h [3, 20]: 1.8 ± 0.2 %ID/g; tissue uptake at 4 h [3, 21]: 2.2 ± 0.1 %ID/g; tissue uptake at 24 h [3, 21]: 2 ± 0.2 %ID/g; tissue uptake at 4 h [3, 22]: 1.6 ± 0.3 %ID/g; tissue uptake at 24 h [3, 22]: 0.69 ± 0.03 %ID/g; remaining at 1 h, 10 MBq/200 µL [4]: 100 ± 1%; remaining at 4 h, 10 MBq/200 µL [4]: 98 ± 1%; remaining at 24 h, 10 MBq/200 µL [4]: 98 ± 2%; remaining at 1 h, 10 MBq/200 µL [5]: 100 ± 1%; remaining at 4 h, 10 MBq/200 µL [5]: 99 ± 1%; remaining at 24 h, 10 MBq/200 µL [5]: 99 ± 1%; logD [6]: 0.25 ± 0.02
56 ± 8 nM	13 ± 1 %ID/g	15 ± 1 %ID/g	1.5 ± 0.3 %ID/g	1.8 ± 0.3 %ID/g	0.31 ± 0.05 %ID/g	0.3 ± 0.01 %ID/g	4.8 ± 0.5 %ID/g	5.2 ± 0.1 %ID/g	1.8 ± 0.1 %ID/g	2 ± 0.1 %ID/g	4.1 ± 0.3 %ID/g	4.7 ± 0.2 %ID/g	3.1 ± 0.4 %ID/g	3.2 ± 0.2 %ID/g	7.5 ± 0.5 %ID/g	7.7 ± 0.7 %ID/g	1.3 ± 0.1 %ID/g	1.5 ± 0.1 %ID/g	1.7 ± 0.1 %ID/g	CC(C)C[C@H](NC(=O)[C@H](Cc1ccc(O)cc1)NC(=O)[C@@H](CCCNC(=N)N)NC(=O)[C@@H](CO)NC(=O)[C@H](Cc1ccccc1)NC(=O)[C@H](CC1CCCCC1)NC(=O)[C@H](CC(=O)O)NC(=O)[C@H](CCCCNC(=O)CCOCCOCCOCCOCCNC(=O)c1ccc(CNC(=O)CCCc2ccc(I)cc2)cc1)NC(=O)CN1CCN(CC(=O)O)CCN(CC(=O)O)CCN(CC(=O)O)CC1)C(=O)N[C@@H](Cc1c[nH]c2ccccc12)C(=O)N[C@@H](CO)C(N)=O [[^177Lu]Lu-uPAR-03, metal not drawn]	tissue uptake at 4 h [3, 23]: 4 ± 0.3 %ID/g; tissue uptake at 24 h [3, 23]: 7.5 ± 0.2 %ID/g; tissue uptake at 24 h [3, 19]: 1.9 ± 0.2 %ID/g; tissue uptake at 4 h [3, 20]: 3.4 ± 0.4 %ID/g; tissue uptake at 24 h [3, 20]: 3.6 ± 0.2 %ID/g; tissue uptake at 4 h [3, 21]: 2.2 ± 0.2 %ID/g; tissue uptake at 24 h [3, 21]: 3 ± 0.2 %ID/g; tissue uptake at 4 h [3, 22]: 1.6 ± 0.1 %ID/g; tissue uptake at 24 h [3, 22]: 1.8 ± 0.1 %ID/g; remaining at 1 h, 10 MBq/200 µL [4]: 100%; remaining at 4 h, 10 MBq/200 µL [4]: 99 ± 1%; remaining at 24 h, 10 MBq/200 µL [4]: 98 ± 1%; remaining at 1 h, 10 MBq/200 µL [5]: 100 ± 1%; remaining at 4 h, 10 MBq/200 µL [5]: 99 ± 1%; remaining at 24 h, 10 MBq/200 µL [5]: 99 ± 2%; logD [6]: 0.37 ± 0.14
																				Asp-Cha-Phe-ser-arg-Tyr-Leu-Trp-Ser (DAFSRYLWS; Printed as Asp-Cha-Phe-ser-arg-Tyr-Leu-Trp-Ser. Residue 2 is Cha (L-beta-cyclohexylalanine, written as parent Ala, as in PDB 1YWH entity 2); D-Ser4; D-Arg5; Linear; C-terminal form (acid or amide) not) [AE105]	Kd [7]: 0.4 nM
